The results in this text go back to patent US10385097B2, “Ether compounds for treatment of medical disorders” (Achillion Pharmaceuticals, Inc., priority 2015, dated 2019).

A word on the IC50: it is the midpoint of a concentration-inhibition curve.

The target in this assay is T1, Human Factor D (Homo sapiens, UniProt P00746).
T1 construct: purified from human serum; purchased Complement Technology, Inc; host or cells: human serum (natural protein, not recombinant)
T1 sequence (P00746 26-253): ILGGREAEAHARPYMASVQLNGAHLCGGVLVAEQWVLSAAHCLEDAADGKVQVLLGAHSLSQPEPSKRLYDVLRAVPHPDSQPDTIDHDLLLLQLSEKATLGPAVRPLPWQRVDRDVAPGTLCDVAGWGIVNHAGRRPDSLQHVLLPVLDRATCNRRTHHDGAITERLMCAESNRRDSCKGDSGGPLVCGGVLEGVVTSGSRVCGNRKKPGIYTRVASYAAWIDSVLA
The assay can be described thus: Human Factor D Assay. It is filed as biochemical. The settings on record: Table 3; Human Factor D 80 nM, substrate Z-L-Lys-SBzl; read-out: (IC50 (Stars)). The essentials: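 Serum-purified factor D (80 nM final) preincubated 5 min at room temperature with compound in 50 mM Tris, 1 M NaCl, pH 7.5. Reaction started with 100 μM Z-L-Lys-SBzl plus 100 μM DTNB; A405 read every 30 s for 30 min; IC50 by nonlinear regression of rates.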
As to `CC(=O)c1cn(CC(=O)N2C[C@H](F)C[C@H]2C(=O)NCCCCc2ccccc2)c2ccc(OCS(=O)(=O)NC(C)(C)C)cc12` [Compound 138, (2S,4R)-1-(2-(3-Acetyl-5-((N-(tert-butyl)sulfamoyl)methoxy)-1H-indol-1-yl)acetyl)-4-fluoro-N-(4-phenylbutyl)pyrrolidine-2-carboxamide], the half-inhibitory concentration (IC50) is below 1 µM. Regarding `CC(=O)c1cn(CC(=O)N2C[C@H](F)C[C@H]2C(=O)NCCCCc2ccccc2)c2ccc(OCS(N)(=O)=O)cc12` [Compound 139, (2S,4R)-1-(2-(3-Acetyl-5-(sulfamoylmethoxy)-1H-indol-1-yl)acetyl)-4-fluoro-N-(4-phenylbutyl)pyrrolidine-2-carboxamide], the 50% inhibitory concentration (IC50) fell in the range of 1 to 10 µM. As for `CC(=O)c1cn(CC(=O)N2C[C@H](F)C[C@H]2C(=O)NCc2cccc(Cl)c2F)c2ccc(OCS(=O)(=O)NC(C)(C)C)cc12` [Compound 140, (2S,4R)-1-(2-(3-Acetyl-5-((N-(tert-butyl)sulfamoyl)methoxy)-1H-indol-1-yl)acetyl)-N-(3-chloro-2-fluorobenzyl)-4-fluoropyrrolidine-2-carboxamide], the figure is below 1 µM; as for `CC(=O)c1cn(CC(=O)N2C[C@H](F)C[C@H]2C(=O)NCc2cccc(Cl)c2F)c2ccc(OCS(N)(=O)=O)cc12` [Compound 141, (2S,4R)-1-(2-(3-Acetyl-5-(sulfamoylmethoxy)-1H-indol-1-yl)acetyl)-N-(3-chloro-2-fluorobenzyl)-4-fluoropyrrolidine-2-carboxamide], below 1 µM; as for `CCOP(=O)(COc1ccc2c(c1)c(C(C)=O)cn2CC(=O)N1C[C@H](F)C[C@H]1C(=O)NCc1ccccc1)OCC` [Compound 144, Diethyl (((3-acetyl-1-(2-((2S,4R)-2-(benzylcarbamoyl)-4-fluoropyrrolidin-1-yl)-2-oxoethyl)-1H-indol-5-yl)oxy)methyl)phosphonate], below 1 µM. The value for `CC(=O)c1cn(CC(=O)N2C[C@H](F)C[C@H]2C(=O)NCc2ccccc2)c2ccc(OCP(=O)(O)O)cc12` [Compound 145, (((3-Acetyl-1-(2-((2S,4R)-2-(benzylcarbamoyl)-4-fluoropyrrolidin-1-yl)-2-oxoethyl)-1H-indol-5-yl)oxy)methyl)phosphonic acid] was 1 to 10 µM; that for `CCOP(=O)(COc1ccc2c(c1)c(C(C)=O)cn2CC(=O)N1C[C@H](F)C[C@H]1C(=O)NCCc1ccccc1)OCC` [Compound 146, Diethyl (((3-acetyl-1-(2-((2S,4R)-4-fluoro-2-(phenethylcarbamoyl)pyrrolidin-1-yl)-2-oxoethyl)-1H-indol-5-yl)oxy)methyl)phosphonate] was below 1 µM.

In the case of `CC(=O)c1cn(CC(=O)N2C[C@H](F)C[C@H]2C(=O)NCCc2ccccc2)c2ccc(OCP(=O)(O)O)cc12` [Compound 147, (((3-Acetyl-1-(2-((2S,4R)-4-fluoro-2-(phenethylcarbamoyl)pyrrolidin-1-yl)-2-oxoethyl)-1H-indol-5-yl)oxy)methyl)phosphonic acid], the 50% inhibitory concentration (IC50) was above 10 µM. As for `CCOP(=O)(COc1ccc2c(c1)c(C(C)=O)cn2CC(=O)N1C[C@H](F)C[C@H]1C(=O)NCCCc1ccccc1)OCC` [Compound 148, diethyl (((3-acetyl-1-(2-((2S,4R)-4-fluoro-2-((3-phenylpropyl)carbamoyl)pyrrolidin-1-yl)-2-oxoethyl)-1H-indol-5-yl)oxy)methyl)phosphonate], the IC50 was below 1 µM. Consider `CC(=O)c1cn(CC(=O)N2C[C@H](F)C[C@H]2C(=O)NCCCc2ccccc2)c2ccc(OCP(=O)(O)O)cc12` [Compound 149, (((3-Acetyl-1-(2-((2S,4R)-4-fluoro-2-((3-phenylpropyl)carbamoyl)pyrrolidin-1-yl)-2-oxoethyl)-1H-indol-5-yl)oxy)methyl)phosphonic acid], for which the IC50 is above 10 µM. Take `CCOP(=O)(COc1ccc2c(c1)c(C(C)=O)cn2CC(=O)N1C[C@H](F)C[C@H]1C(=O)NCCCCc1ccccc1)OCC` [Compound 150, Diethyl (((3-acetyl-1-(2-((2S,4R)-4-fluoro-2-((4-phenylbutyl)carbamoyl)pyrrolidin-1-yl)-2-oxoethyl)-1H-indol-5-yl)oxy)methyl)phosphonate]: the IC50 is below 1 µM.

`CC(=O)c1cn(CC(=O)N2C[C@H](F)C[C@H]2C(=O)NCCCCc2ccccc2)c2ccc(OCP(=O)(O)O)cc12` [Compound 151, (((3-Acetyl-1-(2-((2S,4R)-4-fluoro-2-((4-phenylbutyl)carbamoyl)pyrrolidin-1-yl)-2-oxoethyl)-1H-indol-5-yl)oxy)methyl)phosphonic acid]: the IC50 was above 10 µM. As for `CCOP(=O)(COc1ccc2c(c1)c(C(C)=O)cn2CC(=O)N1C[C@H](F)C[C@H]1CCNS(=O)(=O)c1ccccc1)OCC` [Compound 158, Diethyl (((3-acetyl-1-(2-((2R,4R)-4-fluoro-2-(2-(phenylsulfonamido)ethyl)pyrrolidin-1-yl)-2-oxoethyl)-1H-indol-5-yl)oxy)methyl)phosphonate], the figure is 1 to 10 µM. The value for `CC(=O)c1cn(CC(=O)N2C[C@H](F)C[C@H]2CCNS(=O)(=O)c2ccccc2)c2ccc(OCP(=O)(O)O)cc12` [Compound 159, (((3-Acetyl-1-(2-((2R,4R)-4-fluoro-2-(2-(phenylsulfonamido)ethyl)pyrrolidin-1-yl)-2-oxoethyl)-1H-indol-5-yl)oxy)methyl)phosphonic acid] was above 10 µM; that for `CCOP(=O)(COc1ccc2c(c1)c(C(C)=O)cn2CC(=O)N1CC[C@H]1C(=O)Nc1cccc(C)n1)OCC` [Compound 163, Diethyl (S)-(((3-acetyl-1-(2-(2-((6-methylpyridin-2-yl)carbamoyl)azetidin-1-yl)-2-oxoethyl)-1H-indol-5-yl)oxy)methyl)phosphonate] was above 10 µM; that for `CC(=O)c1cn(CC(=O)N2C[C@H](F)C[C@H]2C(=O)Nc2cncc(Br)n2)c2ccc(Oc3ncc(F)cn3)cc12` [Compound 164, (2S,4R)-1-(2-(3-Acetyl-5-((5-fluoropyrimidin-2-yl)oxy)-1H-indol-1-yl)acetyl)-N-(6-bromopyrazin-2-yl)-4-fluoropyrrolidine-2-carboxamide] was below 1 µM. The value for `CC(=O)c1cn(CC(=O)N2[C@@H]3C[C@@H]3C[C@H]2C(=O)Nc2cncc(Br)n2)c2ccc(Oc3ncc(F)cn3)cc12` [Compound 165, (1R,3S,5R)-2-(2-(3-Acetyl-5-((5-fluoropyrimidin-2-yl)oxy)-1H-indol-1-yl)acetyl)-N-(6-bromopyrazin-2-yl)-2-azabicyclo[3.1.0]hexane-3-carboxamide] was below 1 µM; that for `CC(=O)c1cn(CC(=O)N2C[C@H](F)C[C@H]2C(=O)Nc2cncc(Br)n2)c2ccc(Oc3ncc(C)cn3)cc12` [Compound 166, (2S,4R)-1-(2-(3-Acetyl-5-((5-methylpyrimidin-2-yl)oxy)-1H-indol-1-yl)acetyl)-N-(6-bromopyrazin-2-yl)-4-fluoropyrrolidine-2-carboxamide] was below 1 µM; that for `CC(=O)c1nn(CC(=O)N2C[C@H](F)C[C@H]2C(=O)Nc2cncc(Br)n2)c2ccc(Oc3ncc(C)cn3)cc12` [Compound 167, (2S,4R)-1-(2-(3-Acetyl-5-((5-methylpyrimidin-2-yl)oxy)-1H-indazol-1-yl)acetyl)-N-(6-bromopyrazin-2-yl)-4-fluoropyrrolidine-2-carboxamide] was below 1 µM. With `CC(=O)c1nn(CC(=O)N2C[C@H](F)C[C@H]2C(=O)Nc2cncc(Br)n2)c2ccc(Oc3nccc(C)n3)cc12` [Compound 168, (2S,4R)-1-(2-(3-Acetyl-5-((4-methylpyrimidin-2-yl)oxy)-1H-indazol-1-yl)acetyl)-N-(6-bromopyrazin-2-yl)-4-fluoropyrrolidine-2-carboxamide], the IC50 is below 1 µM. As for `CC(=O)c1nn(CC(=O)N2C[C@H](F)C[C@H]2C(=O)Nc2cccc(Br)n2)c2ccc(Oc3ncc(C)cn3)cc12` [Compound 169, (2S,4R)-1-(2-(3-Acetyl-5-((5-methylpyrimidin-2-yl)oxy)-1H-indazol-1-yl)acetyl)-N-(6-bromopyridin-2-yl)-4-fluoropyrrolidine-2-carboxamide], the figure is below 1 µM. In the case of `CC(=O)c1nn(CC(=O)N2[C@@H]3C[C@@H]3C[C@H]2C(=O)Nc2cncc(Br)n2)c2ccc(Oc3ncc(C)cn3)cc12` [Compound 170, (1R,3S,5R)-2-(2-(3-Acetyl-5-((5-methylpyrimidin-2-yl)oxy)-1H-indazol-1-yl)acetyl)-N-(6-bromopyrazin-2-yl)-2-azabicyclo[3.1.0]hexane-3-carboxamide], the IC50 was below 1 µM. As for `CC(=O)c1nn(CC(=O)N2[C@@H]3C[C@@H]3C[C@H]2C(=O)Nc2cccc(Br)n2)c2ccc(Oc3ncc(C)cn3)cc12` [Compound 171, (1R,3S,5R)-2-(2-(3-Acetyl-5-((5-methylpyrimidin-2-yl)oxy)-1H-indazol-1-yl)acetyl)-N-(6-bromopyridin-2-yl)-2-azabicyclo[3.1.0]hexane-3-carboxamide], the half-inhibitory concentration (IC50) was below 1 µM.

For `CC(=O)c1nn(CC(=O)N2C[C@H](F)C[C@H]2C(=O)Nc2nc(Br)ccc2C)c2ccc(Oc3ncc(C)cn3)cc12` [Compound 172, (2S,4R)-1-(2-(3-Acetyl-5-((5-methylpyrimidin-2-yl)oxy)-1H-indazol-1-yl)acetyl)-N-(6-bromo-3-methylpyridin-2-yl)-4-fluoropyrrolidine-2-carboxamide], the IC50 was below 1 µM. As for `CC(=O)c1nn(CC(=O)N2[C@@H]3C[C@@H]3C[C@H]2C(=O)Nc2nc(Br)ccc2C)c2ccc(Oc3ncc(C)cn3)cc12` [Compound 173, (1R,3S,5R)-2-(2-(3-Acetyl-5-((5-methylpyrimidin-2-yl)oxy)-1H-indazol-1-yl)acetyl)-N-(6-bromo-3-methylpyridin-2-yl)-2-azabicyclo[3.1.0]hexane-3-carboxamide], the figure is below 1 µM.
